Legend:
ActMMP-2 = assay: Solid-phase binding of [125I]-actMMP-2 to immobilized collagens/peptides (microwells); parameters: species or system human; details: for Binding of [125I]-MMPs: ActMMP-2, 2 ng/well, coated wells, 4°C, 2 h, residual radioactivity, mean ± SD, at least five experiments in triplicate
Experimental: (§1) Human recombinant proMMPs and in vitro activated MMPs were obtained from Invitek and were labeled with the [^125I]-Bolton-Hunter reagent according to the manufacturer's instructions (PerkinElmer, Rodgau, Germany) before the buffer was exchanged for phosphate-buffered saline (PBS) with 0.05% (vol/vol) Tween 20 by gel filtration as described previously. Specific radioactivity for [^125I]-MMPs was 3-9 × 10^4 cpm/ng. Precipitation with 10% (wt/vol) trichloroacetic acid and 200 μg of BSA recovered 96% to 100% of protein-bound radioactivity. Aliquots of labeled MMPs were frozen and stored at -80°C. The activity and integrity were checked by substrate gel zymography using SDS-PAGE and autoradiography with overnight exposure to Biomax MS film (Kodak, Stuttgart, Germany) (Figure 2A).
(§2) Native human CI, CIII and CVI were purified from skin tissue and placenta. The CI single chains α1(I) and α2(I) were obtained and modified as described previously. To prepare defined fragments, 2 mg of α1(I) were dissolved in 1 ml of 70% (vol/vol) formic acid at room temperature, the tubes were flushed with nitrogen for 10 min, and then 2 mg of CB were added. After incubation for 4 h at 37°C, free CB was neutralized and the samples were lyophilized. The peptides CB3, CB6, CB7 and CB8 were separated from the reaction mixture by gel filtration followed by ion-exchange chromatography. The resulting peptides were characterized by amino acid analysis and SDS-PAGE [45, 46]. The CB peptides had the following melting temperatures: CB3, 23.9°C; CB6, 26.7°C; CB7, 28.1°C; and CB8, 28.0°C [31].
(§3) The following collagen analogs and control peptides were synthesized as described previously: (GPO)10, H-Gly-Cys-Hyp-(Gly-Pro-Hyp)10-Gly-Cys-Hyp-Gly-NH2; (GPP)10, H-Gly-Cys-Pro-(Gly-Pro-Pro)10-Gly-Cys-Pro-Gly-NH2; and GAP, H-Gly-Ala-Cys-(Gly-Ala-Pro)5-Gly-Phe-Hyp-Gly-Glu-Arg-(Gly-Ala-Pro)5-NH2. Peptides (POG)10, (PPG)10 and (POG)5 were purchased from Peptide International (Louisville, KY, USA). Spontaneous triple-helix assembly was approved by polarimetry over a 10-cm path length at 1°C/min in 10 mM phosphate buffer, pH 7.4. At 5 mg/ml, midpoints of melting curves occurred at 82.3 ± 1.4°C for (GPO)10 and at 45.8 ± 0.8°C for (GPP)10. […] Graphs were calculated from the primary data using a custom fitting program written by D.A. Slatter (Department of Biochemistry, University of Cambridge, Cambridge, UK [48]) to model different possible transitions. All collagens, CI derivatives and peptides were stored in stock solutions of 2 mg/ml in 150 mM acetic acid at -20°C.
(§4) ProMMP-2 and proMMP-9 or actMMP-2 and actMMP-9 were bound to nitrocellulose and polystyrene-immobilized native collagens, CI chains, CB peptides or structural analogs. Serial dilutions of collagens or CI derivatives in 150 mM acetic acid were dotted at 3 × 3 μl to a nitrocellulose membrane with high protein-binding capacity (GE Healthcare, Munich, Germany). Air-dried membranes were blocked with PBS and 0.3% (vol/vol) Tween 20 overnight at 4°C, washed three times, and incubated with 1 ng/ml [^125I]-pro- and actMMP-2 and pro- and actMMP-9 in PBS and 0.3% (vol/vol) Tween 20 for 2 h at room temperature. Membranes were washed again and air-dried, and bound MMP was monitored by autoradiography. In parallel, polystyrene microtiter plates (Dynex, Chantilly, VA, USA) were coated with collagen proteins and peptides. Here 2 μg/well or 200 ng/well proteins and peptides or BSA as control were immobilized in 100 μl of 50 mM ammonium bicarbonate buffer, pH 9.6, by overnight incubation at 4°C. Immobilization efficacies were 20% to 45% of total proteins. Wells were washed three times with PBS, and nonspecific binding sites were blocked with PBS and 0.05% (vol/vol) Tween 20 for 1 h at room temperature. All incubation steps were performed with 2 ng of [^125I]-MMPs at 4°C for 2 h. […]

ActMMP-9 = assay: Solid-phase binding of [125I]-actMMP-9 to immobilized collagens/peptides (microwells); parameters: species or system human; details: ActMMP-9, 2 ng/well; coated wells; 4°C, 2 h; residual radioactivity; mean ± SD, at least five experiments in triplicate
Experimental: as §1, §2, §3, §4

ProMMP-9 = assay: Solid-phase binding of [125I]-proMMP-9 to immobilized collagens/peptides (microwells); parameters: species or system human; details: ProMMP-9, 2 ng/well; coated wells; 4°C, 2 h; residual radioactivity; mean ± SD, at least five experiments in triplicate
Experimental: as §1, §2, §3, §4

[1] = Triple-helix melting temperature; type: physicochemical; details: at 5°C; polarimetry
Experimental: as §2, §3

proMMP-2 / CI = molecular target: T1, proMMP-2 / CI (Homo sapiens, UniProt P08253); assay: SPR, competition of proMMP-2 binding to CI, MMP activity buffer with Ro 28-2653; details: SPR; MMP activity buffer with Ro 28-2653
T1 construct: prodomain-containing proMMP-2 or proMMP-9; purchased Invitek
T1 sequence (P08253 30-660 limits assumed): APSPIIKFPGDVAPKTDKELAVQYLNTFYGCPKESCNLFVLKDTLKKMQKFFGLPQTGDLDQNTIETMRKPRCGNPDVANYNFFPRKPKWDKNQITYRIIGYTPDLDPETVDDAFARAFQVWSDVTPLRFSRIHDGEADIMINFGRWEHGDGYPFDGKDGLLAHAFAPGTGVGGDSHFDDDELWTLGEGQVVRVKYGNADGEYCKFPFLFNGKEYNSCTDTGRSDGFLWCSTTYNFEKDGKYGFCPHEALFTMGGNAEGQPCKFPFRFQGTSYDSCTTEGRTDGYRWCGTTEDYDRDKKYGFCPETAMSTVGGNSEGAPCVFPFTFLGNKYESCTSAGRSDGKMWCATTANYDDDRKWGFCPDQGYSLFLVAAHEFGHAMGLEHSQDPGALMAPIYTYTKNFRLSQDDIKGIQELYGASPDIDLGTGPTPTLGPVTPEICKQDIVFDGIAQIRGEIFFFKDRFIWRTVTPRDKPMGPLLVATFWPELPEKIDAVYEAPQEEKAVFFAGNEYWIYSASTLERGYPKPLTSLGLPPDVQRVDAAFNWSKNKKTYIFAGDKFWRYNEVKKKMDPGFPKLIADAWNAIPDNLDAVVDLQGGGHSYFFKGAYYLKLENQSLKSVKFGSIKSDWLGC
Experimental: (§5) Sensor chip preparations and SPR measurements were performed using a BiacoreX device and the Bia-evaluation software (version 3.2; Biacore, Uppsala, Sweden). The pepsin-resistant triple-helical part of human fibrillar CI (100 μg/ml) in 10 mM acetate coupling buffer, pH 4.8, was immobilized to a dextran matrix-sensor chip at a flow rate of 5 μl/min, resulting in 5,500 resonance units from CI covalently linked via its primary amino groups. The control flow cell was prepared using the coupling buffer without CI. Surfaces were activated and blocked as described previously. Immediately after thawing, pro- and actMMP-2 and pro- and actMMP-9 were diluted to 100 to 250 nM in MMP activity buffer or in PBS and 0.05% (vol/vol) Tween 20. For SPR measurements, flow rates were 10 μl/min at 25°C, and equilibrium was typically reached after 30 to 60 s. The effects of (GPO)10, GAP, (POG)5, (GPP)10 and P33-42 on MMP-2 and MMP-9 binding to CI and their enzymatic activity were determined by adding the binding competitors to the (pro- and act)MMP-2 and MMP-9 solution in 10- to 150-fold molar excesses. Effects independent of MMP-2 and MMP-9 activity were monitored in the presence of Ro 28-2653 (1 μM) during SPR analysis. The gelatinase inhibitor Ro 28-2653 was a generous gift from H.-W. Krell (Roche, Grenzach-Wyhlen, Germany). Sensor surfaces were regenerated with 10 mM glycine, pH 2.3, for 1 min between runs, and sensor chips were used up to 25 times. Kinetic parameters were analyzed using the 1:1 binding model with drifting baseline and subtraction of the control flow cell binding from sensorgrams obtained with immobilized CI. Binding constants (Kd) were calculated from the association (ka) and dissociation rates (kd) obtained from individual binding curves at different concentrations. Individual drifts of the resonance signal were fitted locally, and χ^2 values of 0.2% to 1.0% of the maximum resonance value were considered good fits.

MMPs / CI = assay: SPR, effect of control peptide on interaction of the MMPs with CI; type: binding, human; details: linear control peptide, not shown
Experimental: as §5, with “Immediately after thawing, pro- and actMMP-2 and pro- and actMMP-9 were diluted to 100 to 250 nM in MMP activity buffer or in PBS and 0.05% (vol/vol) Tween 20. For SPR measurements, flow rates were 10 μl/min at 25°C, and equilibrium was typically reached after 30 to 60 s.” left out, “The gelatinase inhibitor Ro 28-2653 was a generous gift from H.-W. Krell (Roche, Grenzach-Wyhlen, Germany). Sensor surfaces were regenerated with 10 mM glycine, pH 2.3, for 1 min between runs, and sensor chips were used up to 25 times.” left out, “Individual drifts of the resonance signal were fitted locally, and χ^2 values of 0.2% to 1.0% of the maximum resonance value were considered good fits.” left out

ProMMP-2 = assay: Solid-phase binding of [125I]-proMMP-2 to immobilized collagens/peptides (microwells); parameters: species or system human; details: for Binding of [125I]-MMPs: ProMMP-2, 2 ng/well, coated wells, 4°C, 2 h, residual radioactivity, mean ± SD, at least five experiments in triplicate
Experimental: as §1, §2, §3, §4

[2] = test system: gelatinase activity in rat cirrhotic liver; assay: In situ zymography of cirrhotic liver, negative controls; type: biochemical; details: 10 mM ethylenediaminetetraacetic acid or 1 mM phenanthroline; DQ-gelatine
Experimental: As described earlier, in situ zymography was performed with cryostat sections (6 μm) of rat cirrhotic liver. In brief, sections were dried, overlayed with 100 μg/ml DQ-gelatine (λex/em, 495/515 nm; Molecular Probes, Eugene, OR, USA) and 0.5% (wt/vol) low-melt agarose in MMP activity buffer. […] Samples were inserted into coverslips and incubated at 40°C for 1 h before being transferred to room temperature for an additional 2 to 16 h. Hoechst 33342 (Invitrogen, Carlsbad, California, USA) nuclear dye was used for counterstaining. Images were obtained by fluorescence microscopy using a Nikon E800 photodocumentation microscope (Nikon Imaging, Düsseldorf, Germany).

Row | Compound | Binding of [125I]-MMPs (ActMMP-2) | Binding of [125I]-MMPs (ActMMP-9) | Binding of [125I]-MMPs (ProMMP-9) | helicity [1] | competition with proMMP-2 binding to CI (proMMP-2 / CI) | Binding of [125I]-MMPs (ProMMP-2) | interaction with control peptides (ProMMP-2; pro- and act-forms of MMP-2 and MMP-9, in words) | maximum binding (ActMMP-2; actMMP-2, text) | effect on interaction of the MMPs with CI (MMPs / CI) | gelatinase activity [2]
1 | c1cnc2c(c1)ccc1cccnc12 [phenanthroline] |  |  |  |  |  |  |  |  |  | no generation of bright green fluorescence was observed
2 | α2(I): CI single chain α2(I) | 10.7 ± 1.8 % of maximum control | 2.6 ± 0.2 % of maximum control | 21.8 ± 1.1 % of maximum control |  |  | 30.2 ± 2.3 % of maximum control |  |  |  | 
3 | O=C(O)CN(CCN(CC(=O)O)CC(=O)O)CC(=O)O [ethylenediaminetetraacetic acid] |  |  |  |  |  |  |  |  |  | no generation of bright green fluorescence was observed

More lines, main results first:

Row | Binding of [125I]-MMPs (ActMMP-2) | Binding of [125I]-MMPs (ActMMP-9) | Binding of [125I]-MMPs (ProMMP-9) | helicity [1] | competition with proMMP-2 binding to CI (proMMP-2 / CI) | Binding of [125I]-MMPs (ProMMP-2) | interaction with control peptides (ProMMP-2; pro- and act-forms of MMP-2 and MMP-9, in words) | maximum binding (ActMMP-2; actMMP-2, text) | Compound | effect on interaction of the MMPs with CI (MMPs / CI) | gelatinase activity [2]
4 | 1.5 ± 0.7 % of maximum control | 0.7 ± 0.2 % of maximum control | 1.3 ± 0.2 % of maximum control | nonhelical even at 5 °C | less efficient | 1.7 ± 1.0 % of maximum control | only marginal interactions |  | H-Gly-Ala-Cys-(Gly-Ala-Pro)5-Gly-Phe-Hyp-Gly-Glu-Arg-(Gly-Ala-Pro)5-NH2 [GAP, linear Gly-Ala-Pro (GAP) control peptide] | no effect | 
5 | 4.8 ± 0.6 % of maximum control | 2.4 ± 0.1 % of maximum control | 12.3 ± 0.8 % of maximum control |  |  | 14.1 ± 1.8 % of maximum control |  |  | CVI: native human collagen type VI |  | 
6 | 19.0 ± 3.0 % of maximum control | 4.7 ± 0.3 % of maximum control | 37.6 ± 0.9 % of maximum control |  |  | 36.0 ± 4.0 % of maximum control |  | 19% | α1(I): α1 chain of collagen type I |  | 
